The source of these data is US9701670B2, “Pyrazolyl-ureas as kinase inhibitors” (RESPIVERT LIMITED, priority 2013, dated 2017).

The term IC50 denotes the concentration needed to halve the response being measured. A high value points to weaker potency in that assay.

The target of data set [1] is p38 MAPKα isoform (MAPK14) (Homo sapiens (Human), UniProt Q16539). In words: p38 MAPKα enzyme inhibition (FRET, Z-LYTE), Method 1. The format is biochemical. The conditions noted are these: Method 1 (Table 4a1).
Sequence of p38 MAPKα isoform (MAPK14) (Q16539 whole entry, canonical isoform): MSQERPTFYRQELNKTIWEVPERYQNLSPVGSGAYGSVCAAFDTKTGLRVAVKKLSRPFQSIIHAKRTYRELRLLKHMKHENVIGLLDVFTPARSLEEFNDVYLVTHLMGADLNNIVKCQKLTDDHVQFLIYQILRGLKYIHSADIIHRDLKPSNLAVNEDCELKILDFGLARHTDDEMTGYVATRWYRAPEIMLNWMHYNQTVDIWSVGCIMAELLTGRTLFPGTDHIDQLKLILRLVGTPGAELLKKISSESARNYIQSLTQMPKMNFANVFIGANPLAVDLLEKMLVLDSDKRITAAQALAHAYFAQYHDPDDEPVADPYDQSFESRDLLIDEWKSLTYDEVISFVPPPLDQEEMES
In data set [2] the test system is Differentiated U937 cells. Put plainly: (l) Cell viability: MTT assay. The format is cell-based, human. Conditions: 1 μg/mL. In short, it runs like this:
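Differentiated U937 cells were exposed to compound at 1 or 10 μg/mL either 4 h in 5% FCS RPMI1640 or 24 h in 10% FCS RPMI1640, then given MTT for 1 h, DMSO-solubilised and read at 550 nm. Percent viability loss versus 0.5% DMSO vehicle; apparent gains appear negative.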
For orientation: Tetrazolium assays rely on reduction of a dye to a coloured formazan, in cell work by metabolically active cells.

Some results are limits rather than exact numbers.

Turning to `COc1cc(Nc2cc(Oc3ccc(NC(=O)Nc4cc(C(C)(C)C)nn4-c4ccc(C)cc4)c4ccccc34)ncn2)cc(C(=O)NCCN2CCOCC2)c1` [Example 72, 3-((6-((4-(3-(3-(tert-butyl)-1-(p-tolyl)-1H-pyrazol-5-yl)ureido)naphthalen-1-yl)oxy)pyrimidin-4-yl)amino)-5-methoxy-N-(2-morpholinoethyl)benzamide], the IC50 in data set [1] is below 0.001 µM. For the same molecule, in data set [2], the “Cell viability at time point in d-U937 cells 4 h” value is “−ve (−ve and +ve indicate that the value is below and above respectively, the no significant effect threshold, defined as 30% inhibition at 1 μg/mL at the time point indicated.)”; the “Cell viability at time point in d-U937 cells 24 h” value was “−ve (−ve and +ve indicate that the value is below and above respectively, the no significant effect threshold, defined as 30% inhibition at 1 μg/mL at the time point indicated.)”.
As for `COc1cc(Nc2cc(Oc3ccc(NC(=O)Nc4cc(C(C)C)nn4-c4ccc(C)cc4)c4ccccc34)ncn2)cc(C(=O)NCCN2CCOCC2)c1` [Example 71, 3-((6-((4-(3-(3-isopropyl-1-(p-tolyl)-1H-pyrazol-5-yl)ureido)naphthalen-1-yl)oxy)pyrimidin-4-yl)amino)-5-methoxy-N-(2-morpholinoethyl)benzamide], half-maximal inhibition in data set [1] (IC50) was put at 0.002 µM. In data set [2], the “Cell viability at time point in d-U937 cells 4 h” value is “−ve (−ve and +ve indicate that the value is below and above respectively, the no significant effect threshold, defined as 30% inhibition at 1 μg/mL at the time point indicated.)”; the “Cell viability at time point in d-U937 cells 24 h” value was “−ve (−ve and +ve indicate that the value is below and above respectively, the no significant effect threshold, defined as 30% inhibition at 1 μg/mL at the time point indicated.)”.
In turn, `COc1cc(Nc2nccc(Oc3ccc(NC(=O)Nc4cc(C5(C)CC5)nn4-c4ccc(C)cc4)c4ccccc34)n2)cc(C(=O)NCCN2CCOCC2)c1` [Example 51, 3-methoxy-5-((4-((4-(3-(3-(1-methylcyclopropyl)-1-(p-tolyl)-1H-pyrazol-5-yl)ureido)naphthalen-1-yl)oxy)pyrimidin-2-yl)amino)-N-(2-morpholinoethyl)benzamide] yielded a half-inhibitory concentration (IC50) in data set [1] of 0.015 µM. Further, in data set [2], the “Cell viability at time point in d-U937 cells 4 h” value was “−ve (−ve and +ve indicate that the value is below and above respectively, the no significant effect threshold, defined as 30% inhibition at 1 μg/mL at the time point indicated.)”; the “Cell viability at time point in d-U937 cells 24 h” value was “−ve (−ve and +ve indicate that the value is below and above respectively, the no significant effect threshold, defined as 30% inhibition at 1 μg/mL at the time point indicated.)”.
Take `COc1ccc(-n2nc(C(C)C)cc2NC(=O)Nc2ccc(Oc3ccnc(Nc4cc(OC)cc(C(=O)NCCN5CCOCC5)c4)c3)c3ccccc23)cc1` [Example 15, 3-((4-((4-(3-(3-isopropyl-1-(4-methoxyphenyl)-1H-pyrazol-5-yl)ureido)naphthalen-1-yl)oxy)pyridin-2-yl)amino)-5-methoxy-N-(2-morpholinoethyl)benzamide]: the IC50 in data set [1] was 0.007 µM. In data set [2], the “Cell viability at time point in d-U937 cells 4 h” value was “−ve (−ve and +ve indicate that the value is below and above respectively, the no significant effect threshold, defined as 30% inhibition at 1 μg/mL at the time point indicated.)”; the “Cell viability at time point in d-U937 cells 24 h” value is “−ve (−ve and +ve indicate that the value is below and above respectively, the no significant effect threshold, defined as 30% inhibition at 1 μg/mL at the time point indicated.)”.
In the case of `COc1cc(Nc2nccc(Oc3ccc(NC(=O)Nc4cc(C(C)(C)C)nn4-c4ccc(C)cc4)c4ccccc34)n2)cc(C(=O)NCCN(C)C)c1` [Example 43, 3-((4-((4-(3-(3-(tert-butyl)-1-(p-tolyl)-1H-pyrazol-5-yl)ureido)naphthalen-1-yl)oxy)pyrimidin-2-yl)amino)-N-(2-(dimethylamino)ethyl)-5-methoxybenzamide], in data set [1], the midpoint of inhibition, the IC50, lay at 0.004 µM. Moreover, in data set [2], the “Cell viability at time point in d-U937 cells 4 h” value was “−ve (−ve and +ve indicate that the value is below and above respectively, the no significant effect threshold, defined as 30% inhibition at 1 μg/mL at the time point indicated.)”; the “Cell viability at time point in d-U937 cells 24 h” value was “−ve (−ve and +ve indicate that the value is below and above respectively, the no significant effect threshold, defined as 30% inhibition at 1 μg/mL at the time point indicated.)”.
In turn, `Cc1csc(-n2nc(C(C)(C)C)cc2NC(=O)Nc2ccc(Oc3ccnc(Nc4cccc(C(=O)NCCN5CCOCC5)c4)n3)c3ccccc23)c1` [Example 24, 3-((4-((4-(3-(3-(tert-butyl)-1-(4-methylthiophen-2-yl)-1H-pyrazol-5-yl)ureido)naphthalen-1-yl)oxy)pyrimidin-2-yl)amino)-N-(2-morpholinoethyl)benzamide] came in with an IC50 in data set [1] of 0.011 µM. For the same molecule, in data set [2], the “Cell viability at time point in d-U937 cells 4 h” value was “−ve (−ve and +ve indicate that the value is below and above respectively, the no significant effect threshold, defined as 30% inhibition at 1 μg/mL at the time point indicated.)”; the “Cell viability at time point in d-U937 cells 24 h” value is “−ve (−ve and +ve indicate that the value is below and above respectively, the no significant effect threshold, defined as 30% inhibition at 1 μg/mL at the time point indicated.)”.
`COc1cc(Nc2nccc(Oc3ccc(NC(=O)Nc4cc(C(F)(F)F)nn4-c4ccc(C)cc4)c4ccccc34)n2)cc(C(=O)NCCN2CCOCC2)c1` [Example 48, 3-methoxy-N-(2-morpholinoethyl)-5-((4-((4-(3-(1-(p-tolyl)-3-(trifluoromethyl)-1H-pyrazol-5-yl)ureido)naphthalen-1-yl)oxy)pyrimidin-2-yl)amino)benzamide] returned an IC50 in data set [1] of 0.018 µM. Also, in data set [2], the “Cell viability at time point in d-U937 cells 4 h” value is “−ve (−ve and +ve indicate that the value is below and above respectively, the no significant effect threshold, defined as 30% inhibition at 1 μg/mL at the time point indicated.)”; the “Cell viability at time point in d-U937 cells 24 h” value was “−ve (−ve and +ve indicate that the value is below and above respectively, the no significant effect threshold, defined as 30% inhibition at 1 μg/mL at the time point indicated.)”.
The molecule `COc1ccc(C(=O)NCCO)cc1Nc1nccc(Oc2ccc(NC(=O)Nc3cc(C(C)C)nn3-c3ccc(C)cc3)c3ccccc23)n1` [Example 32, N-(2-hydroxyethyl)-3-((4-((4-(3-(3-isopropyl-1-(p-tolyl)-1H-pyrazol-5-yl)ureido)naphthalen-1-yl)oxy)pyrimidin-2-yl)amino)-4-methoxybenzamide] showed an IC50 in data set [1] of 0.001 µM. Also, in data set [2], the “Cell viability at time point in d-U937 cells 4 h” value was “−ve (−ve and +ve indicate that the value is below and above respectively, the no significant effect threshold, defined as 30% inhibition at 1 μg/mL at the time point indicated.)”; the “Cell viability at time point in d-U937 cells 24 h” value was “−ve (−ve and +ve indicate that the value is below and above respectively, the no significant effect threshold, defined as 30% inhibition at 1 μg/mL at the time point indicated.)”.
`Cc1ccc(-n2nc(C(C)(C)C)cc2NC(=O)Nc2ccc(Oc3ccnc(Nc4cccc(C(=O)NCCN(C)C)c4)n3)c3ccccc23)cc1` [Example 18, 3-((4-((4-(3-(3-(tert-butyl)-1-(p-tolyl)-1H-pyrazol-5-yl)ureido)naphthalen-1-yl)oxy)pyrimidin-2-yl)amino)-N-(2-(dimethylamino)ethyl)benzamide] returned an IC50 in data set [1] of 0.012 µM. Moreover, in data set [2], the “Cell viability at time point in d-U937 cells 4 h” value is “−ve (−ve and +ve indicate that the value is below and above respectively, the no significant effect threshold, defined as 30% inhibition at 1 μg/mL at the time point indicated.)”; the “Cell viability at time point in d-U937 cells 24 h” value was “−ve (−ve and +ve indicate that the value is below and above respectively, the no significant effect threshold, defined as 30% inhibition at 1 μg/mL at the time point indicated.)”.
The molecule `Cc1ccc(-n2nc(C(C)(C)C)cc2NC(=O)Nc2ccc(Oc3ccnc(Nc4cccc(C(=O)NCCN5CCN(C)CC5)c4)n3)c3ccccc23)cc1` [Example 25, 3-((4-((4-(3-(3-(tert-butyl)-1-(p-tolyl)-1H-pyrazol-5-yl)ureido)naphthalen-1-yl)oxy)pyrimidin-2-yl)amino)-N-(2-(4-methylpiperazin-1-yl)ethyl)benzamide] came in with an IC50 in data set [1] of 0.013 µM. For the same molecule, in data set [2], the “Cell viability at time point in d-U937 cells 4 h” value is “−ve (−ve and +ve indicate that the value is below and above respectively, the no significant effect threshold, defined as 30% inhibition at 1 μg/mL at the time point indicated.)”; the “Cell viability at time point in d-U937 cells 24 h” value is “−ve (−ve and +ve indicate that the value is below and above respectively, the no significant effect threshold, defined as 30% inhibition at 1 μg/mL at the time point indicated.)”.
For `COc1ccc(-n2nc(C(C)(C)C)cc2NC(=O)Nc2ccc(Oc3ccnc(Nc4cccc(C(=O)NCCN5CCOCC5)c4)n3)c3ccccc23)cc1` [Example 21, 3-((4-((4-(3-(3-(tert-butyl)-1-(4-methoxyphenyl)-1H-pyrazol-5-yl)ureido)naphthalen-1-yl)oxy)pyrimidin-2-yl)amino)-N-(2-morpholinoethyl)benzamide], 0.01 µM corresponded to half-maximal inhibition in data set [1] (IC50). Moreover, in data set [2], the “Cell viability at time point in d-U937 cells 4 h” value was “−ve (−ve and +ve indicate that the value is below and above respectively, the no significant effect threshold, defined as 30% inhibition at 1 μg/mL at the time point indicated.)”; the “Cell viability at time point in d-U937 cells 24 h” value is “−ve (−ve and +ve indicate that the value is below and above respectively, the no significant effect threshold, defined as 30% inhibition at 1 μg/mL at the time point indicated.)”.
In turn, `COc1ccc(-n2nc(C(C)(C)C)cc2NC(=O)Nc2ccc(Oc3ccnc(Nc4cc(Br)cc(C(N)=O)c4)n3)c3ccccc23)cc1` [Example 42, 3-bromo-5-((4-((4-(3-(3-(tert-butyl)-1-(4-methoxyphenyl)-1H-pyrazol-5-yl)ureido)naphthalen-1-yl)oxy)pyrimidin-2-yl)amino)benzamide] came in with a half-inhibitory concentration (IC50) in data set [1] of 0.167 µM. In addition, in data set [2], the “Cell viability at time point in d-U937 cells 4 h” value was “−ve (−ve and +ve indicate that the value is below and above respectively, the no significant effect threshold, defined as 30% inhibition at 1 μg/mL at the time point indicated.)”; the “Cell viability at time point in d-U937 cells 24 h” value is “−ve (−ve and +ve indicate that the value is below and above respectively, the no significant effect threshold, defined as 30% inhibition at 1 μg/mL at the time point indicated.)”.
